In patent EP2468279A1, “Prokineticin 1 receptor agonists and their uses” (Université de Strasbourg, priority 2010, dated 2012):

Tests used:
Assay type in all cases: cell-based
[1] = system: endothelial cells (H5V); assay: Induction of in vitro angiogenesis: tube formation on Growth Factor Reduced Matrigel; details: serum free medium, 24h at 37°C, number of branching points, Figures 3 and 4
Description: Coronary endothelial cells (H5V cells) were maintained in DMEM supplemented with 10% heat inactivated Fetal Calf Serum (FCS), glutamine (1mM) under 5% CO2 at 37°C.
In order to evaluate the potential angiogenic activity of the PKR1 agonists, the test of Growth Factor Reduced Matrigel (GFR Matrigel) 24 well plate was performed. Matrigel leads to the differentiation of many cell types and induces the formation and organization of endothelial cells into capillary tubules. Twenty-four-well culture plates were coated with Matrigel and endothelial cells (H5V) were trypsin-harvested and seeded onto the coated plates at 10^5 cells per well in the serum free assay medium with PKR1 agonists, IS1 and prokineticin-2, and incubated at 37°C for 24h. Tube formation as two dimensional branched structures were observed using an inverted phase contrast microscope (Zeiss), and the number of branching points were quantified in per well from each sample. Each experiment was repeated at least three times. Images were captured at a magnification of X10 with a digital microscope camera system (Urayama K et al., 2007).

[2] = biological target: T1, PKR1 (Homo sapiens, UniProt Q8TCW9); assay: Activation of PKR1 signalling pathway: intracellular calcium measured with Fluo 4-AM in CHO-K1 cells infected with adenovirus carrying PKR1 cDNA; details: CHO-K1 cells expressing PKR1, Fluo 4-AM fluorescence; Figure 5
T1 construct: expressed in transfected cells; host or cells: CHO-K1 cells, transfected with Lipofectamine2000
Description: CHO-K1 (Chinese Hamster Ovary) cells were infected with a adenovirus carrying PKR1 cDNA. Cells were then stimulated, 48h after infection, with or without IS1 agonists, at 37°C. Calcium imaging was conducted essentially as previously described (Horinouchi et al., 2007) In brief, Intracellular free calcium [Ca^2+]i was measured with the fluorescent Ca^2+ indicator dye Fluo 4-AM, the membrane-permeant acetoxymethyl ester form of Fluo 4 (Invitrogen). Changes in [Ca^2+]i were determined from variations in the fluorescence intensity of Fluo 4-AM. Briefly, trypsinized CHO-K1-PKR1 cells were seeded onto glass bottom culture dishes (MatTek, MA, USA) for 24 h. […] The fluorescence in the cells was excited at a wavelength of 488 nm and a series of images (total exposure time: 300 s) were acquired at 0.5s intervals at emission wavelength 518 nm. Data are presented as the fluorescence intensity of 3 randomly chosen cells within a randomly selected 40 × field. To evaluate the effect of IS1 compound on [Ca^2+]i in CHO-K-PKR1, the maximum change in fluorescence intensity upon addition of IS1 was measured and normalized to the baseline fluorescence obtained before IS 1 addition.

[3] = biological target: T1, PKR1; assay: PKR1 internalization in CHO-K1 cells transfected with GFP-PKR1, by confocal microscopy; details: Figure 6
Description: The capacity of agonist compounds to induce internalization of PKR1 was assessed. Therefore, CHO-K1 cells transfected with a plasmid encoding GFP-PKR1 (Green Fluorescent Protein-PKR1), in the presence of Lipofectamine2000 (Invitrogen), were used. Cells were stimulated, 48h after transfection, with or without agonist compound, at 37°C. GFP is a fluorescent protein fusion (26.9 kDa) which has a major excitation peak at a wavelength of 396 nm and a minor one at 472 nm. Its emission peak is at 504 nm which is in the lower green portion of the visible spectrum. Fluorescence allowed tracking the localization of PKR1 after stimulation by the agonist (membrane or subcellular). Cells were seeded in glass-bottom coated with polyL-lysine and receptor studies were performed in the presence of various PKR1-ligands. Samples were observed under a Leica confocal microscope (SP2 AOBS MP) with objective 63× at 37°C. Images were automatically recorded during 20 min, with increasing time intervals to avoid bleaching effects because of repetitive scanning. Reconstituted videos contained 42 images and lasted 2 second.

T1 sequence (Q8TCW9 whole entry): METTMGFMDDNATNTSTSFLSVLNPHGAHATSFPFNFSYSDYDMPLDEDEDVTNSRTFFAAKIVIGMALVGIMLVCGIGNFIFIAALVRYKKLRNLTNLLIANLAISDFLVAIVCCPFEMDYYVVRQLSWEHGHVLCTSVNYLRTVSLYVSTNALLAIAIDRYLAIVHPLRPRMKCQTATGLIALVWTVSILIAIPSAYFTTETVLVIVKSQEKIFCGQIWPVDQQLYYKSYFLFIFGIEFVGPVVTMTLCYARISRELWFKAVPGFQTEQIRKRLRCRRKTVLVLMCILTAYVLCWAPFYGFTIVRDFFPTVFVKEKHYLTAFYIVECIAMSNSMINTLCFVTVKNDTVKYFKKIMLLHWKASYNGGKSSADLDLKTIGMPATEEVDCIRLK

## O=C(NCc1cccnc1)C(=Cc1ccco1)NC(=O)c1ccccc1 [IS1]
[1]
  in vitro angiogenesis (tube-like formation of the endothelial cells on Matrigel): Induction of in vitro angiogenesis
[2]
  activation of the PKR1 signalling pathway (intracellular calcium release): able to activate the PKR1 signalling pathway
[3]; CHO cells GFP-PKR1, 48h after transfection, 37°C
  PKR1 internalization: induces its internalization
[3]; CHO cells GFP-PKR1
  specificity of interaction with PKR1: specifically interacts with PKR1
